Results on 32 compounds are retold here after patent US11066396B2 (priority 2016, dated 2021).

One assay has as its target HDAC1 (Homo sapiens (Human), UniProt Q13547). To be noted: read-out: HDAC1 IC50.
For a further assay, the target named is HDAC5 (Homo sapiens (Human), UniProt Q9UQL6). The following applies: read-out: HDAC5 IC50.
Chain of HDAC5 (Q9UQL6 656-1122): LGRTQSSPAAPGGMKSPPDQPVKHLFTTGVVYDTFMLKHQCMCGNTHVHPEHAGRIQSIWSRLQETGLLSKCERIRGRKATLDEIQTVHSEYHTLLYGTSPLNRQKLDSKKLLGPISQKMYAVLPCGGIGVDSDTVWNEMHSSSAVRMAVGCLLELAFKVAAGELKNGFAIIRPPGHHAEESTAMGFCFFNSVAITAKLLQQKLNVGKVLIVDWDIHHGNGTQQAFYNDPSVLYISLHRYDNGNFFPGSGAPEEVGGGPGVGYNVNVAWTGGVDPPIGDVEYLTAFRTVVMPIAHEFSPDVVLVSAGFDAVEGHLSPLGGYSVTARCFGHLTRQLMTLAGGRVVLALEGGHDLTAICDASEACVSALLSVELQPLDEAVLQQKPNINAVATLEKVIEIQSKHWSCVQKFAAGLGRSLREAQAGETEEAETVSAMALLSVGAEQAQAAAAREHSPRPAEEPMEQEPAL

Chain of HDAC1 (Q13547 whole entry): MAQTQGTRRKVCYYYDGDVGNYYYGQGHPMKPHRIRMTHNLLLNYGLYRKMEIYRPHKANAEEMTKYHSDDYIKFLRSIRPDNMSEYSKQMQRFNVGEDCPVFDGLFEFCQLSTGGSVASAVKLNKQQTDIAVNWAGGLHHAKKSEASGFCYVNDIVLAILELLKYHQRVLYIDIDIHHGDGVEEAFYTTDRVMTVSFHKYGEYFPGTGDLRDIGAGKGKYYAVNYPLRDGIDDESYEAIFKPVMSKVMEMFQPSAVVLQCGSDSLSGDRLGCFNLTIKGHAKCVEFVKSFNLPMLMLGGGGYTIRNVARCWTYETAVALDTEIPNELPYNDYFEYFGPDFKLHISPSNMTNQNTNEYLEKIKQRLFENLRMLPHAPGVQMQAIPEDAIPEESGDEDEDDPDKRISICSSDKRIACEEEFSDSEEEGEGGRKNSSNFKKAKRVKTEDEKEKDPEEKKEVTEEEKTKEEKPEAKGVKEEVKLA

As usually defined, the IC50 is the point on the concentration scale where inhibition reaches its midpoint. `O=C(NC(Cc1ccc(-c2noc(C(F)(F)F)n2)cn1)c1cccc(C(F)(F)F)c1)c1ccccn1` (racemic) [Example 488, N-(2-{5-[5-(trifluoromethyl)-1,2,4-oxadiazol-3-yl]pyridin-2-yl}-1-[3-(trifluoromethyl)phenyl]ethyl)pyridine-2-carboxamide]: the IC50 was found to be 880 nM at HDAC1 and 670 nM at HDAC5.
On to `O=S1(=O)CCC(S(=O)(=O)N(Cc2ccc(-c3noc(C(F)(F)F)n3)cc2)c2cccc(C(F)(F)F)c2)C1` (racemic) [Example 492, 1,1-dioxo-N-({4-[5-(trifluoromethyl)-1,2,4-oxadiazol-3-yl]phenyl}methyl)-N-[3-(trifluoromethyl)phenyl]-llambda~6~-thiolane-3-sulfonamide], for which the results for the IC50 on HDAC1 and at HDAC5 were 1200 nM and 390 nM, respectively.
Consider `O=C(N1CCOCC1)N(Cc1ncc(-c2noc(C(F)(F)F)n2)cn1)c1cccc(C(F)(F)F)c1` [Example 50, N-((5-(5-(trifluoromethyl)-1,2,4-oxadiazol-3-yl)pyrimidin-2-yl)methyl)-N-(3-(trifluoromethyl)phenyl)morpholine-4-carboxamide], for which the IC50 on HDAC1 came out at 240 nM; on HDAC5, 820 nM.
For the compound `Fc1cc(-c2noc(C(F)(F)F)n2)ccc1COc1ccccc1` [Example 168, 3-(3-Fluoro-4-(phenoxymethyl)phenyl)-5-(trifluoromethyl)-1,2,4-oxadiazole], the results for the IC50 at HDAC1 and at HDAC5 were 15000 nM and 1100 nM, respectively.
In the case of `CCNC(=O)NC(Cc1ccc(-c2noc(C(F)(F)F)n2)cn1)c1cccc(C(F)(F)F)c1` (stereo not shown) [Example 179, 1-Ethyl-3-(2-(5-(5-(trifluoromethyl)-1,2,4-oxadiazol-3-yl)pyridin-2-yl)-1-(3-(trifluoromethyl)phenyl)ethyl)urea], the IC50 at HDAC1 stood at 340 nM; on HDAC5, 390 nM.
For the compound `COC(=O)NC(Cc1ccc(-c2noc(C(F)(F)F)n2)cn1)c1cccc(C(F)(F)F)c1` (stereo not shown) [Example 180], the IC50 at HDAC1 and at HDAC5 was 650 nM throughout.
In the case of `Fc1ccccc1OCc1cc(-c2noc(C(F)(F)F)n2)ccn1` [Example 250, 2-[(2-fluorophenoxy)methyl]-4-[5-(trifluoromethyl)-1,2,4-oxadiazol-3-yl]pyridine], the values for the IC50 at HDAC1 and on HDAC5 were 3100 nM and 910 nM, respectively.
As for `Fc1cc(COc2cccnn2)ccc1-c1noc(C(F)(F)F)n1` [Example 257, 3-({3-fluoro-4-[5-(trifluoromethyl)-1,2,4-oxadiazol-3-yl]phenyl}methoxy)pyridazine], the IC50 on HDAC1 amounted to 6400 nM; on HDAC5, 200 nM.
Take `COc1cncc(OCc2ccc(-c3noc(C(F)(F)F)n3)c(F)c2)c1` [Example 258, 3-({3-fluoro-4-[5-(trifluoromethyl)-1,2,4-oxadiazol-3-yl]phenyl}methoxy)-5-methoxypyridine]: the IC50 on HDAC1 was found to be 1200 nM; at HDAC5, 150 nM.
The matching figures for `Fc1cc(COc2cnc3[nH]ccc3c2)ccc1-c1noc(C(F)(F)F)n1` [Example 259, 5-({3-fluoro-4-[5-(trifluoromethyl)-1,2,4-oxadiazol-3-yl]phenyl}methoxy)-1H-pyrrolo[2,3-b]pyridine]: 4200 nM and 84 nM.
Turning to `Fc1ccc(OCc2ccc(-c3noc(C(F)(F)F)n3)c(F)c2)cn1` [Example 260, 2-fluoro-5-({3-fluoro-4-[5-(trifluoromethyl)-1,2,4-oxadiazol-3-yl]phenyl}methoxy)pyridine], the values for the IC50 on HDAC1 and on HDAC5 were 12000 nM and 120 nM, respectively.
The corresponding values for `Fc1ccc2ccc(OCc3ccc(-c4noc(C(F)(F)F)n4)c(F)c3)nc2n1` [Example 261, 2-fluoro-7-({3-fluoro-4-[5-(trifluoromethyl)-1,2,4-oxadiazol-3-yl]phenyl}methoxy)-1,8-naphthyridine] are 850 nM and 24 nM.
On to `Fc1cc(COc2nnnc3ccccc23)ccc1-c1noc(C(F)(F)F)n1` [Example 262, 4-({3-fluoro-4-[5-(trifluoromethyl)-1,2,4-oxadiazol-3-yl]phenyl}methoxy)-1,2,3-benzotriazine], for which the IC50 turned out to be 2900 nM at HDAC1 and 120 nM on HDAC5.
Consider `Cc1ccc(OCc2ccc(-c3noc(C(F)(F)F)n3)c(F)c2)nn1` [Example 263, 3-({3-fluoro-4-[5-(trifluoromethyl)-1,2,4-oxadiazol-3-yl]phenyl}methoxy)-6-methylpyridazine], for which the IC50 was determined as 5300 nM at HDAC1 and 240 nM at HDAC5.
On to `NC(=O)c1cccc(OCc2ccc(-c3noc(C(F)(F)F)n3)c(F)c2)c1` [Example 264, 3-({3-fluoro-4-[5-(trifluoromethyl)-1,2,4-oxadiazol-3-yl]phenyl}methoxy)benzamide], for which the results for the IC50 on HDAC1 and on HDAC5 were 2200 nM and 90 nM, respectively.
For `Fc1cc(COc2cccc3c2CNCC3)ccc1-c1noc(C(F)(F)F)n1` [Example 265, 8-({3-fluoro-4-[5-(trifluoromethyl)-1,2,4-oxadiazol-3-yl]phenyl}methoxy)-1,2,3,4-tetrahydroisoquinoline], the IC50 was 5600 nM on HDAC1 and 280 nM at HDAC5.
As for `Cc1ccnnc1OCc1ccc(-c2noc(C(F)(F)F)n2)c(F)c1` [Example 266, 3-({3-fluoro-4-[5-(trifluoromethyl)-1,2,4-oxadiazol-3-yl]phenyl}methoxy)-4-methylpyridazine], the IC50 at HDAC1 came out at 6600 nM; at HDAC5, 250 nM.
On to `NCc1cccc(OCc2ccc(-c3noc(C(F)(F)F)n3)c(F)c2)c1` [Example 267, 1-[3-({3-fluoro-4-[5-(trifluoromethyl)-1,2,4-oxadiazol-3-yl]phenyl}methoxy)phenyl]methanamine], for which the IC50 came to 1100 nM on HDAC1 and 200 nM at HDAC5.
For `Fc1cc(COc2nccc3nccn23)ccc1-c1noc(C(F)(F)F)n1` [Example 268, 5-({3-fluoro-4-[5-(trifluoromethyl)-1,2,4-oxadiazol-3-yl]phenyl}methoxy)imidazo[1,2-c]pyrimidine], the figures for the IC50 on HDAC1 and on HDAC5 were 2900 nM and 120 nM, respectively.
With `Cc1cncc(OCc2ccc(-c3noc(C(F)(F)F)n3)c(F)c2)c1` [Example 269, 3-({3-fluoro-4-[5-(trifluoromethyl)-1,2,4-oxadiazol-3-yl]phenyl}methoxy)-5-methylpyridine], the values for the IC50 at HDAC1 and on HDAC5 were 7100 nM and 500 nM, respectively.
With `NCc1ccccc1OCc1ccc(-c2noc(C(F)(F)F)n2)c(F)c1` [Example 270, 1-[2-({3-fluoro-4-[5-(trifluoromethyl)-1,2,4-oxadiazol-3-yl]phenyl}methoxy)phenyl]methanamine], the results for the IC50 at HDAC1 and at HDAC5 were 2300 nM and 160 nM, respectively.
Consider `Fc1cc(COc2cccc3[nH]ncc23)ccc1-c1noc(C(F)(F)F)n1` [Example 271, 4-({3-fluoro-4-[5-(trifluoromethyl)-1,2,4-oxadiazol-3-yl]phenyl}methoxy)-1H-indazole], for which the IC50 is 3700 nM on HDAC1 and 85 nM on HDAC5.
Regarding `Fc1cc(COc2nc3cccnc3n2C2CC2)ccc1-c1noc(C(F)(F)F)n1` [Example 272, 3-cyclopropyl-2-({3-fluoro-4-[5-(trifluoromethyl)-1,2,4-oxadiazol-3-yl]phenyl}methoxy)-3H-imidazo[4,5-b]pyridine], the IC50 came out at 630 nM on HDAC1 and 31 nM on HDAC5.
The matching figures for `Cn1c(OCc2ccc(-c3noc(C(F)(F)F)n3)c(F)c2)nc2ncccc21` [Example 273, 2-({3-fluoro-4-[5-(trifluoromethyl)-1,2,4-oxadiazol-3-yl]phenyl}methoxy)-1-methyl-1H-imidazo[4,5-b]pyridine]: 720 nM and 28 nM.
Take `Cc1ncc(OCc2ccc(-c3noc(C(F)(F)F)n3)c(F)c2)cn1` [Example 274, 5-({3-fluoro-4-[5-(trifluoromethyl)-1,2,4-oxadiazol-3-yl]phenyl}methoxy)-2-methylpyrimidine]: the IC50 was determined as 4000 nM at HDAC1 and 160 nM on HDAC5.
In the case of `COc1ccc2cc(OCc3ccc(-c4noc(C(F)(F)F)n4)c(F)c3)nnc2c1` [Example 275, 3-({3-fluoro-4-[5-(trifluoromethyl)-1,2,4-oxadiazol-3-yl]phenyl}methoxy)-7-methoxycinnoline], the values for the IC50 at HDAC1 and on HDAC5 were 860 nM and 87 nM, respectively.
The matching figures for `Fc1cc(COc2cnc(C3CC3)nc2)ccc1-c1noc(C(F)(F)F)n1` [Example 276, 2-cyclopropyl-5-({3-fluoro-4-[5-(trifluoromethyl)-1,2,4-oxadiazol-3-yl]phenyl}methoxy)pyrimidine]: 1500 nM and 120 nM.
In the case of `Fc1cc(COc2nc3ncccc3n2CC(F)(F)F)ccc1-c1noc(C(F)(F)F)n1` [Example 277, 2-({3-fluoro-4-[5-(trifluoromethyl)-1,2,4-oxadiazol-3-yl]phenyl}methoxy)-1-(2,2,2-trifluoroethyl)-1H-imidazo[4,5-b]pyridine], the half-maximal inhibitory concentration (IC50) on HDAC1 turned out to be 2000 nM; at HDAC5, 130 nM.
For `Fc1cc(COc2nc3cccnc3n2CC(F)(F)F)ccc1-c1noc(C(F)(F)F)n1` [Example 278, 2-({3-fluoro-4-[5-(trifluoromethyl)-1,2,4-oxadiazol-3-yl]phenyl}methoxy)-3-(2,2,2-trifluoroethyl)-3H-imidazo[4,5-b]pyridine], the figures for the IC50 at HDAC1 and at HDAC5 were 780 nM and 86 nM, respectively.
The corresponding values for `COc1ncc(OCc2ccc(-c3noc(C(F)(F)F)n3)c(F)c2)cn1` [Example 279, 5-({3-fluoro-4-[5-(trifluoromethyl)-1,2,4-oxadiazol-3-yl]phenyl}methoxy)-2-methoxypyrimidine] are 750 nM and 69 nM.
As to `Fc1cc(COc2nnc(C3CC3)o2)ccc1-c1noc(C(F)(F)F)n1` [Example 280, 3-(4-{[(5-cyclopropyl-1,3,4-oxadiazol-2-yl)oxy]methyl}-2-fluorophenyl)-5-(trifluoromethyl)-1,2,4-oxadiazole], the results for the IC50 on HDAC1 and on HDAC5 were 2200 nM and 190 nM, respectively.
For the compound `Cc1csc(OCc2ccc(-c3noc(C(F)(F)F)n3)c(F)c2)n1` [Example 281, 3-(2-fluoro-4-{[(4-methyl-1,3-thiazol-2-yl)oxy]methyl}phenyl)-5-(trifluoromethyl)-1,2,4-oxadiazole], the results for the IC50 at HDAC1 and at HDAC5 were 2700 nM and 30 nM, respectively.
